Results as given in patent publication US7935826B2, “Insecticidal N-substituted (heteroaryl)cycloalkyl sulfoximines” (Dow AgroSciences LLC, priority 2006, dated 2011).

Assays:
Format in all cases: in vivo
[1] = system: Cotton Aphid (Aphis gossypii); assay: Insecticidal test for cotton aphid in foliar spray assay on squash; set-up: key: A: 90-100; B: 80-89; C: 70-79; D: 60-69; E: 50-59; F: Less than 50; G: Inactive; H: Not tested; conditions: Corrected % Control (Abbott), 3 days after spray
Description: Insecticidal Test for Cotton Aphid (Aphis gossypii) in Foliar Spray Assay Squash with fully expanded cotyledon leaves were trimmed to one cotyledon per plant and infested with cotton aphid (wingless adult and nymph) 1 day prior to chemical application. Each plant was examined before chemical application to ensure proper infestation (ca. 30-70 aphids per plant). Compounds (2 mg) were dissolved in 2 ml of acetone:methanol (1:1) solvent, forming stock solutions of 1000 ppm. The stock solutions were diluted 5× with 0.025% Tween 20 in H2O to obtain a solution at 200 ppm. Lower concentrations (50, 12.5, 3.125, 0.781 and 0.195 ppm) were prepared by making sequential 4× dilutions from the 200 ppm solution with a diluent consisting 80 parts of 0.025% Tween 20 in H2O and 20 parts of acetone:methanol (1:1). A hand-held Devilbiss sprayer was used to apply the spray solutions until runoff to both sides of the squash cotyledon leaves. Four plants (4 replications) were used for each concentration of each compound. Reference plants (solvent check) were sprayed with the diluent only. Treated plants were held in a holding room for 3 days at approximately 23° C. and 40% RH before the number of live aphids on each plant was recorded. Insecticidal activity was measured by Corrected % Control using Abbott's correction formula and presented in Table 1: Corrected % Control=100*(X−Y)/X • where X=No. of live aphids on solvent check plants • Y=No. of live aphids on treated plants

[2] = system: Green Peach Aphid (Myzus persicae); assay: Insecticidal test for green peach aphid in foliar spray assay on cabbage; set-up: key: A: 90-100; B: 80-89; C: 70-79; D: 60-69; E: 50-59; F: Less than 50; G: Inactive; H: Not tested; conditions: Corrected % Control (Abbott), three days after spray
Description: Insecticidal Test for Green Peach Aphid (Myzus persicae) in Foliar Spray Assay Cabbage seedlings grown in 3-inch pots, with 2-3 small (3-5 cm) true leaves, were used as test substrate. The seedlings were infested with 20-50 green peach aphids (wingless adult and nymph) 2-3 days prior to chemical application. Four seedlings were used for each treatment. Compounds (2 mg) were dissolved in 2 ml of acetone:methanol (1:1) solvent, forming stock solutions of 1000 ppm. The stock solutions were diluted 5× with 0.025% Tween 20 in H2O to obtain a solution at 200 ppm. Lower concentrations (50, 12.5, 3.125 and 0.781 ppm) were prepared by making sequential 4× dilutions from the 200 ppm solution with a diluent consisting 80 parts of 0.025% Tween 20 in H2O and 20 parts of acetone:methanol (1:1). A hand-held Devilbiss sprayer was used for spraying a solution to both sides of cabbage leaves until runoff. Reference plants (solvent check) were sprayed with the diluent only. Treated plants were held in a holding room for three days at approximately 23° C. and 40% RH prior to grading. Evaluation was conducted by counting the number of live aphids per plant under a microscope. Insecticidal activity was measured by using Abbott's correction formula: Corrected % Control=100*(X−Y)/X • where X=No. of live aphids on solvent check plants • Y=No. of live aphids on treated plants

[3] = system: Sweet Potato Whitefly (Bemisia tabaci); assay: Insecticidal test for sweet potato whitefly in foliar spray assay on cotton; conditions: live large nymphs counted 12 days after spray of egg-infested leaves
Text: Insecticidal Test for Sweet Potato Whitefly (Bemisia tabaci) in Foliar Spray Assay This test was designed to measure the capability of whitefly eggs and/or young nymphs to develop to large nymphs. Cotton seedlings at the growth stage of one or two expanding true leaf were trimmed so that only the first true leaf remained (cotyledon leaves were also removed). The plants were pre-infested with sweet potato whitefly eggs by keeping plants next to the colony-keeping plants for two days. The infested plants were carefully checked for presence of similar egg density before use in the insecticidal tests. Master solutions of test compounds at 1000 ppm were prepared in acetone: methanol (1:1). The 12.5 ppm spray solutions were then made by diluting 0.188 mL of the master solution with 14.812 ml of 0.025% Tween 20 in water. The lower concentrations were made by diluting the 12.5 ppm spray solution with a diluent consisting 98.75 parts of 0.025% Tween 20 in water and 1.25 parts of acetone:methanol (1:1). The diluent was used as solvent control. The test solutions were sprayed with a hand-held Devilbiss sprayer until runoff to both sides of the infested cotton leaves. Four plants (4 replications) were used for each treatment. Treated plants were held in a holding room for 12 days at approximately 23° C. and 40% RH before evaluation. To evaluate the efficacy of the compounds, the number of live large nymphs in an area of 1 square inch on the lower surface of the treated cotton leaves was counted under a microscope. Insecticidal activity was determined by Corrected % Control using Abbott's correction formula and presented in Table 3: Corrected % Control=100*(X−Y)/X • where X=No. of live large nymphs on solvent check plants • Y=No. of live large nymphs on treated plants

[4] = system: Brown Planthopper (Nilaparvata lugens); assay: Root-uptake systemic assay on rice, brown planthopper; conditions: 10 ppm in water of rice seedlings, 3rd instar nymphs, mortality observed at 2 and 6 days (day of tabled value not stated)
Description: (§1) Insecticidal Test for Brown Planthopper (Nilaparvata lugens) and Green Leafhopper (Nephotettix sp.) A root-uptake systemic assay was performed on both brown planthopper and green leafhopper. Four-week-old rice seedlings were submerged in 3-cm depth of water in the bottom portion (high 5 cm, diameter 3 cm) of a 2-part glass cylinder (high 18 cm, diameter 3 cm). A metal screen was used to hold the seedlings within the bottom portion. Scotch tape was used to bind the two portions of the cylinder after setting up the seedlings. A metal cap was used to cover the cylinder. There were 4 cylinders for each treatment. The test compound was dissolved in acetone to make a 10,000 ppm stock solution. The stock solution was incorporated at final test concentrations of 10 ppm in the water in which rice seedlings were submerged. Five laboratory-reared 3rd instar nymphs of brown planthopper or green leafhopper were introduced into each cylinder 3 hr after insecticide application. The treated test units were kept in a growth chamber with conditions set as followings: Temperature 28±0.5° C.; Relative humidity 70±0.5%; Photoperiod […].

[5] = system: Green Leafhopper (Nephotettix sp.); assay: Root-uptake systemic assay on rice, green leafhopper; conditions: 10 ppm in water of rice seedlings, 3rd instar nymphs, mortality observed at 2 and 6 days (day of tabled value not stated)
Description: as §1

Compound | % Control at ppm, against cotton aphid on squash (foliar spray) ([1]; 50 ppm) | % Control at ppm, against cotton aphid on squash (foliar spray) ([1]; 0.78 ppm) | % Control at ppm, against cotton aphid on squash (foliar spray) ([1]; 3.13 ppm) | % Control at ppm, against cotton aphid on squash (foliar spray) ([1]; 12.5 ppm) | % Control at ppm, against green peach aphid on cabbage (foliar spray) ([2]; 0.78 ppm) | % Control at ppm, against green peach aphid on cabbage (foliar spray) ([2]; 3.13 ppm) | % Control at ppm, against green peach aphid on cabbage (foliar spray) ([2]; 12.5 ppm) | % Control at ppm, against green peach aphid on cabbage (foliar spray) ([2]; 50 ppm) | % Control at ppm, against green peach aphid on cabbage (foliar spray) ([2]; 200 ppm) | % Control at ppm, against sweet potato whitefly on cotton, foliar spray ([3]; 0.781 ppm) | % Control at ppm, against sweet potato whitefly on cotton, foliar spray ([3]; 3.125 ppm) | % Control at ppm, against sweet potato whitefly on cotton, foliar spray ([3]; 12.500 ppm) | % Systemic Control at 10 ppm on rice, Brown Planthopper [4] | % Systemic Control at 10 ppm on rice, Green Leafhopper [5]
CS(=O)(=NC#N)C1(c2ccc(Cl)nc2)CCC1 (stereo not drawn) [Compound 3, methyl(oxido)[1-(6-chloropyridin-3-yl)cyclobutyl]-λ^4-sulfanylidenecyanamide] | A (90-100) |  |  |  |  |  |  |  |  |  |  |  |  | 
CS(=O)(=NC#N)C1(c2ccc(Cl)nc2)CCCC1 (stereo not drawn) [Compound 4, methyl(oxido)[1-(6-chloropyridin-3-yl)cyclopentyl]-λ^4-sulfanylidenecyanamide] | A (90-100) |  |  |  |  |  |  |  |  |  |  |  |  | 
CS(=O)(=NC#N)C1(c2ccc(Cl)nc2)CCCCC1 (stereo not drawn) [Compound 5, methyl(oxido)[1-(6-chloropyridin-3-yl)cyclohexyl]-λ^4-sulfanylidenecyanamide] | A (90-100) | G | A (90-100) | A (90-100) |  |  |  |  |  |  |  |  |  | 
CS(=O)(=NC#N)C1(c2ccc(C(F)(F)F)nc2)CC1 (stereo not drawn) [Compound 1, methyl(oxido) {1-[6-(trifluoromethyl)pyridin-3-yl]cyclopropyl}-λ^4-sulfanylidenecyanamide] | A (90-100) | A (90-100) | A (90-100) | A (90-100) | F (Less than 50) | B (80-89) | A (90-100) | A (90-100) | A (90-100) |  |  |  |  | 
CS(=O)(=NC#N)C1(c2ccc(Cl)nc2)CCOCC1 (stereo not drawn) [Compound 6, methyl(oxido)[4-(6-chloropyridin-3-yl)tetra hydro-pyran-4-yl]-λ^4-sulfanylidenecyanamide] | A (90-100) | A (90-100) | A (90-100) | A (90-100) | G | G | G | G | A (90-100) |  |  |  |  | 
CS(=O)(=NC#N)C1(c2ccc(Cl)nc2)CC1 (stereo not drawn) [Compound 2, methyl(oxido) [1-(6-chloropyridin-3-yl)cyclopropyl]-λ^4-sulfanylidenecyanamide] |  | A (90-100) | A (90-100) |  | D (60-69) | A (90-100) |  |  |  | F (Less than 50) | E (50-59) | C (70-79) | E (50-59) | B (80-89)
